In patent US20230339952A1, “MACROCYCLIC HETEROCYCLES AND USES THEREOF” (Kumquat Biosciences Inc., priority 2022, published 2023):
Where two headings read alike, the source gives them in different places.

What was measured:
[1] = test system: NCI-H1975 (ATCC CRL-5908) cell line comprising an EGFR T790M L858R double mutation; experiment: EGFR-SOS cellular inhibition assay (CellTiter-Glo cell proliferation); assay type: cell-based; conditions: Homo sapiens
Description: A CellTiter-Glo (CTG) luminescent based assay (Promega) is used to assess growth of the cells, as a measurement of the ability of the compounds herein to inhibit EGFR signaling in the cells. […] The day after plating, cells are treated with a dilution series (e.g., a 9 point 3-fold dilution series) of the compounds herein (e.g., approximately 125 μL final volume per well).

[2] = target: SOS1 (Homo sapiens (Human), UniProt Q07889); experiment: Ras-SOS interaction assay (HTRF), K-Ras G13D utilized; assay type: binding; conditions: K-Ras G13D
From the text: For example, the equilibrium interaction of human SOS1 (hSOS1) with human wildtype Kras or K-Ras mutant (e.g., hK-Ras G12C mutant, or hK-Ras G12C) can be assessed as a proxy or an indication for a subject compound's ability to inhibit SOS. Detection of such interaction is achieved by measuring homogenous time-resolved fluorescence resonance energy transfer (HTRF) from (i) a fluorescence resonance energy transfer (FRET) donor (e.g., antiGST-Europium) that is bound to GST-tagged K-Ras G12C to (ii) a FRET acceptor (e.g., anti-6His-XL665) bound to a His-tagged hSOS1.
A Ras working solution is prepared in assay buffer containing typically 10 nM of the protein construct (e.g., GST-tagged hK-Ras G12C) and 2 nM of the FRET donor (e.g., antiGST-Eu(K) from Cisbio, France). A SOS1 working solution is prepared in assay buffer containing typically 10 nM of the protein construct (e.g., His-hSOS1) and 10 nM of the FRET acceptor (e.g., anti-6His-XL665 from Cisbio, France). An inhibitor control solution is prepared in assay buffer containing 10 nM of the FRET acceptor without the SOS1 protein.
A fixed reaction mixture with or without test compound is transferred into a 384-well plate. Ras working solution is added to all wells of the test plate. SOS1 working solution is added to all wells except for those that are subsequently filled with the inhibitor control solution. […] The ratiometric data (i.e., emission 2 divided by emission 1) is used to calculate IC50 values against SOS1 using GraphPad Prism (GraphPad software).

[3] = 120 h, NCI-H1975 cell proliferation, approximately 5 days, read-out: H1975 IC50

Sequence of SOS1 (Q07889 564-1049): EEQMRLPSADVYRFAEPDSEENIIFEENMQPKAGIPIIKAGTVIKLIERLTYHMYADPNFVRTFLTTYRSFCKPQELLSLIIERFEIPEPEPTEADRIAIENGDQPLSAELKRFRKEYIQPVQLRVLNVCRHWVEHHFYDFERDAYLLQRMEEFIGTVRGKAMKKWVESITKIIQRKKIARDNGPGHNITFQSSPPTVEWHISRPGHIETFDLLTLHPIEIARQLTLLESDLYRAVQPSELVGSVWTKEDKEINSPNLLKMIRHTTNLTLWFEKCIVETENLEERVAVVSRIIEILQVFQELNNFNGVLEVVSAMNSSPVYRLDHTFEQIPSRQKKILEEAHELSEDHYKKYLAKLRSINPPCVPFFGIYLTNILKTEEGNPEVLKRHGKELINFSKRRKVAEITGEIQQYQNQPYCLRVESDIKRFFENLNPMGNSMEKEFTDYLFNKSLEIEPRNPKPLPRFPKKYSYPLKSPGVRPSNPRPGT

SMILES | IC50 [1, 3] [nM] | IC50 ([2]; read-out: SOS1 IC50) [nM] | IC50 ([1]; NCI-H1975, EGFR T790M L858R double mutation, read-out: IC50 in inhibiting growth of NCI-H1975 cell line) [nM] | IC50 ([2]; read-out: IC50 value against SOS1) [nM]
C[C@H]1Nc2ncnc3c2cc(C2(C#N)CC2)c(=O)n3CC(=O)NCCCCN2CCC(CC2)C(F)(F)c2cccc1c2F [Compound 158, 1-((4R)-3^2,2,2-trifluoro-4-methyl-6^7,8-dioxo-6^7,6^8-dihydro-5,9-diaza-6(4,8)-pyrido[2,3-d]pyrimidina-1(4,1)-piperidina-3(1,3)-benzenacyclotridecaphane-6^6-yl)cyclopropane-1-carbonitrile] | < 1000 | < 100 | – | –
CC1CC/C=C\CCn2c(=O)c(C3(C#N)CC3)cc3c(ncnc32)N[C@H](C)c2cccc(c2)C(F)(F)C2CCN1CC2 (stereo partly drawn) [Compound 100, 1-((4R,Z)-2,2-difluoro-4,13-dimethyl-6^7-oxo-6^7,6^8-dihydro-5-aza-6(4,8)-pyrido[2,3-d]pyrimidina-1(4,1)-piperidina-3(1,3)-benzenacyclotridecaphan-9-en-6^6-yl)cyclopropane-1-carbonitrile] | < 1000 | – | – | –
C[C@H]1Nc2nc(=O)n(c3c2cc(C2(C#N)CC2)c(=O)n3C)CCCCCOCC(F)(F)c2cccc1c2F [Compound 5, 1-((3R,E)-4^2,5,5-trifluoro-1^8,3-dimethyl-1^2,1^7-dioxo-1^1,1^2,1^7,1^8-tetrahydro-7-oxa-2-aza-1(4,1)-pyrido[2,3-d]pyrimidina-4(1,3)-benzenacyclododecaphane-1^6-yl)cyclopropane-1-carbonitrile] | – | 100 to 5000 | – | –
Cc1nc2c3cc(C4(C#N)CC4)c(=O)n(c3n1)CCC/C=C\COCC(F)(F)c1cccc(c1F)[C@@H](C)N2 [Compound 1, 1-((3R,Z)-4^2,5,5-trifluoro-1^2,3-dimethyl-1^7-oxo-1^7,1^8-dihydro-7-oxa-2-aza-1(4,8)-pyrido[2,3-d]pyrimidina-4(1,3)-benzenacyclotridecaphan-9-en-16-yl)cyclopropane-1-carbonitrile] | – | 100 to 5000 | – | –
Cc1nc2c3cc(C4(C#N)CC4)c(=O)n(c3n1)CCCCCC/C=C\CC(C)(O)C(F)(F)c1cccc(c1)[C@@H](C)N2 (stereo partly drawn) [Compound 18, 1-((3R,Z)-5,5-difluoro-6-hydroxy-1^2,3,6-trimethyl-1^7-oxo-1^7,1^8-dihydro-2-aza-1(4,8)-pyrido[2,3-d]pyrimidina-4(1,3)-benzenacyclopentadecaphan-8-en-1^6-yl)cyclopropane-1-carbonitrile] | – | 100 to 5000 | – | –
COc1cc2nc(C)nc3c2cc1OCCCCOCCOCCOCCNCc1ccccc1C1=CC=C(S1)C(C)N3 (stereo not shown) [Compound 150, 5^7-methoxy-5^2,3-dimethyl-6,11,14,17-tetraoxa-4,20-diaza-5(4,6)-quinazolina-2(2,5)-thiophena-1(1,2)-benzenacyclohenicosaphane] | – | 100 to 5000 | – | –
C[C@H]1Nc2ncnc3c2cc(C2CCS(=O)(=O)CC2)c(=O)n3CCNC(=O)CCCN2CCC(CC2)C(F)(F)c2cccc1c2 [Compound 75, (4R)-6^6-(1,1-dioxidotetrahydro-2H-thiopyran-4-yl)-2,2-difluoro-4-methyl-6^7,6^8-dihydro-5,9-diaza-6(4,8)-pyrido[2,3-d]pyrimidina-1(4,1)-piperidina-3(1,3)-benzenacyclotridecaphane-6^7,10-dione] | – | < 100 | – | –

Now from value to molecule:

IC50 [1, 3] [nM] | IC50 ([2]; read-out: SOS1 IC50) [nM] | IC50 ([1]; NCI-H1975, EGFR T790M L858R double mutation, read-out: IC50 in inhibiting growth of NCI-H1975 cell line) [nM] | IC50 ([2]; read-out: IC50 value against SOS1) [nM] | SMILES
< 1000 | < 100 | – | – | C[C@H]1Nc2ncnc3c2cc(C2CCS(=O)(=O)CC2)c(=O)n3CCCCCCCCCN2CCC(CC2)C(F)(F)c2cccc1c2 [Compound 47, (4R)-6^6-(1,1-dioxidotetrahydro-2H-thiopyran-4-yl)-2,2-difluoro-4-methyl-6^7,6^8-dihydro-5-aza-6(4,8)-pyrido[2,3-d]pyrimidina-1(4,1)-piperidina-3(1,3)-benzenacyclopentadecaphan-6^7-one]
< 1000 | < 100 | – | – | C[C@H]1Nc2ncnc3c2cc(N2CCS(=O)(=O)CC2)c(=O)n3CCCCCN2CCC(CC2)CCC(F)(F)c2cccc1c2 [Compound 181, (3R)-1^6-(1,1-dioxidothiomorpholino)-5,5-difluoro-3-methyl-1^7,1^8-dihydro-2-aza-1(4,8)-pyrido[2,3-d]pyrimidina-8(4,1)-piperidina-4(1,3)-benzenacyclotridecaphan-1^7-one]
< 1000 | < 100 | – | – | CC(C)N1CCC(c2cc3c4ncnc3n(c2=O)CCOCCCCN2CCC(CC2)CC(F)(F)c2cccc(c2)[C@@H](C)N4)CC1 [Compound 122, (3R)-5,5-difluoro-1^6-(1-isopropylpiperidin-4-yl)-3-methyl-1^7,1^8-dihydro-12-oxa-2-aza-1(4,8)-pyrido[2,3-d]pyrimidina-7(4,1)-piperidina-4(1,3)-benzenacyclotetradecaphan-1^7-one]
< 1000 | < 100 | – | – | CC(C)N1CCN(c2cc3c4ncnc3n(c2=O)CCCOCCCCN2CCC(CC2)C(F)(F)c2cccc(c2)[C@@H](C)N4)CC1 [Compound 190, (4R)-2,2-difluoro-6^6-(4-isopropylpiperazin-1-yl)-4-methyl-6^7,6^8-dihydro-10-oxa-5-aza-6(4,8)-pyrido[2,3-d]pyrimidina-1(4,1)-piperidina-3(1,3)-benzenacyclotetradecaphan-6^7-one]
< 1000 | < 100 | – | – | C[C@H]1Nc2ncnc3c2cc(C2CCS(=O)(=O)CC2)c(=O)n3CC/C=C\CC(C)(C)CN2CCC(CC2)C(F)(F)c2cccc1c2 [Compound 92, (4R,Z)-6^6-(1,1-dioxidotetrahydro-2H-thiopyran-4-yl)-2,2-difluoro-4,12,12-trimethyl-6^7,6^8-dihydro-5-aza-6(4,8)-pyrido[2,3-d]pyrimidina-1(4,1)-piperidina-3(1,3)-benzenacyclotridecaphan-9-en-6^7-one]
< 1000 | < 100 | – | – | C[C@H]1Nc2ncnc3c2cc(C2CCS(=O)(=O)CC2)c(=O)n3CCCCCC(C)(O)CN2CCC(CC2)C(F)(F)c2cccc1c2 (stereo partly drawn) [Compound 110, (4R)-6^6-(1,1-dioxidotetrahydro-2H-thiopyran-4-yl)-2,2-difluoro-12-hydroxy-4,12-dimethyl-6^7,6^8-dihydro-5-aza-6(4,8)-pyrido[2,3-d]pyrimidina-1(4,1)-piperidina-3(1,3)-benzenacyclotridecaphan-6^7-one]
< 1000 | < 100 | – | – | CC(C)N1CCN(c2cc3c4ncnc3n(c2=O)CC(=O)N(C)CCCCN2CCC(CC2)C(F)(F)c2cccc(c2)[C@@H](C)N4)CC1 [Compound 163, (4R)-2,2-difluoro-6^6-(4-isopropylpiperazin-1-yl)-4,9-dimethyl-6^7,6^8-dihydro-5,9-diaza-6(4,8)-pyrido[2,3-d]pyrimidina-1(4,1)-piperidina-3(1,3)-benzenacyclotridecaphane-6^7,8-dione]
< 1000 | < 100 | – | – | CC(C)N1CCN(c2cc3c4ncnc3n(c2=O)CC(=O)NCCCCN2CCC(CC2)C(F)(F)c2cccc(c2)[C@@H](C)N4)CC1 [Compound 53, (4R)-2,2-difluoro-6^6-(4-isopropylpiperazin-1-yl)-4-methyl-6^7,6^8-dihydro-5,9-diaza-6(4,8)-pyrido[2,3-d]pyrimidina-1(4,1)-piperidina-3(1,3)-benzenacyclotridecaphane-6^7,8-dione]
< 1000 | < 100 | < 500 | < 50 | C[C@H]1Nc2ncnc3c2cc(N2CCS(=O)(=O)CC2)c(=O)n3CCCCCCCN2CC(C2)CC(F)(F)c2cccc1c2 [Compound 211, (3R)-1^6-(1,1-dioxidothiomorpholino)-5,5-difluoro-3-methyl-1^7,1^8-dihydro-2-aza-1(4,8)-pyrido[2,3-d]pyrimidina-7(3,1)-azetidina-4(1,3)-benzenacyclotetradecaphan-1^7-one]
